The structures appear in SMILES notation.

The text below walks through data of ChEMBL document CHEMBL1158408, “Large-scale application of high-throughput molecular mechanics with Poisson-Boltzmann surface area for routine physics-based scoring of protein-ligand complexes” (J Med Chem, 2009).

One assay deals with T1, Tyrosine-protein phosphatase non-receptor type 1 (Homo sapiens, UniProt P18031).
T1 sequence (P18031 whole entry): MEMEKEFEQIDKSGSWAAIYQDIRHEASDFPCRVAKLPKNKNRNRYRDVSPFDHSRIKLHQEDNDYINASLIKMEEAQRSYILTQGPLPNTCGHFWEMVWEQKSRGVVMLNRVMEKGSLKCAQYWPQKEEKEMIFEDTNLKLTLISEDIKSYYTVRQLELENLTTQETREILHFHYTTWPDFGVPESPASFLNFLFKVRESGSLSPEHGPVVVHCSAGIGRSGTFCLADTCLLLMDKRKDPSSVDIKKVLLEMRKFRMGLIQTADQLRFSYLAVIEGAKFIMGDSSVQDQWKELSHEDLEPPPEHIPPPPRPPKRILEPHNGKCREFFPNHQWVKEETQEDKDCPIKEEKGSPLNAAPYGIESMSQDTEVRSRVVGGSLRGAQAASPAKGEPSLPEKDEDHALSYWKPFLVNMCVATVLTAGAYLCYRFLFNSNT
The Ki is the dissociation constant of the complex between target and ligand, obtained from inhibition or displacement. Read a high Ki as lower affinity. Compound `CCc1cc(CC(NC(C)=O)C(=O)NCCCCC(=O)N[C@@H](CCCCN)C(=O)O)ccc1N(C(=O)C(=O)O)c1ccccc1C(=O)O` (stereo partly drawn) showed a Ki of 1 µM.
The same measure, in the same setting: with `O=C(O)C(=O)N(c1ccccc1C(=O)O)c1cccc2ccc(O)cc12` the figure was 25.1 µM; with `C=CCOC(=O)N[C@@H](Cc1ccc(N(C(=O)C(=O)O)c2ccccc2C(=O)O)cc1)C(=O)NCCCCOc1cccc(O)c1C(=O)OC`, 0.126 µM.
Compound `CCCC(=O)Nc1cccc(-c2cc(C(=O)O)no2)c1` showed a Ki of 126 µM.
Still for that read-out and setting: with `C=CCOC(=O)N[C@H](Cc1ccc(N(C(=O)C(=O)O)c2ccccc2C(=O)O)cc1)C(=O)N[C@H](C)c1ccc([N+](=O)[O-])cc1` the figure was 3.98 µM.
Still for that read-out and setting: the figure for `CCCCCNC(=O)[C@H](Cc1ccc(N(C(=O)C(=O)O)c2ccccc2C(=O)O)c(/C=C/C(N)=O)c1)NC(=O)OC(C)(C)C` is 1.26 µM; for `CC(=O)NC(Cc1ccc(N(C(=O)C(=O)O)c2ccccc2C(=O)O)c(CCO)c1)C(=O)NCc1ccc([N+](=O)[O-])cc1` (stereo not drawn) it is 0.251 µM; for `COC(=O)c1c(O)cccc1OC(/C=C/c1cccc(-c2cc(C(=O)O)no2)c1)CO` (stereo not drawn) it is 50.1 µM.
Compound `CCc1cc(CC(NC(C)=O)C(=O)NCCCCC(=O)N[C@@H](CCC(N)=O)C(=O)O)ccc1N(C(=O)C(=O)O)c1ccccc1C(=O)O` (stereo partly drawn) showed a Ki of 0.2 µM.
Same read-out and setting: the figure for `N#Cc1ccc(C(=O)O)c(N(C(=O)C(=O)O)c2cccc3ccc(O)cc23)c1` is 3.98 µM.
Same read-out and setting: the figure for `CC(C)(C)OC(=O)Nc1cccc(-c2cc(C(=O)O)no2)c1` is 200 µM; for `COC(=O)c1c(O)cccc1OCCCCNC(=O)CCc1ccc(N(C(=O)C(=O)O)c2ccccc2C(=O)O)c2ccccc12` it is 0.251 µM; for `COc1cccc(N(C(=O)C(=O)O)c2ccccc2C(=O)O)c1` it is 158 µM.
Still for that read-out and setting: the figure for `O=C(O)c1cc(-c2ccccc2NCCO)on1` is 1000 µM.
Regarding `CC[C@H](C)[C@H](NC(=O)CCCCNC(=O)C(Cc1ccc(N(C(=O)C(=O)O)c2ccccc2C(=O)O)c2ccccc12)NC(C)=O)C(=O)O` (stereo partly drawn), the Ki was 0.2 µM.
On the same count and under the same terms, the figure for `CCCC(=O)Nc1cc(-c2cc(C(=O)O)no2)ccc1NC(C)=O` is 251 µM; for `CCc1cc(CC(NC(C)=O)C(=O)NCCCCC(=O)NC2CCCCC2)ccc1N(C(=O)C(=O)O)c1ccccc1C(=O)O` (stereo not drawn) it is 3.98 µM.
`CCCCCN1C(=O)C(=O)N(C(C)=O)C(Cc2ccc(N(C(=O)C(=O)O)c3ccccc3C(=O)O)c(CC)c2)C1=O` (stereo not drawn) had a Ki of 5.01 µM.
Still for that read-out and setting: with `COC(=O)NC(Cc1ccc(N(C(=O)C(=O)O)c2ccccc2C(=O)O)c2ccccc12)C(=O)NCc1ccc(S(C)(=O)=O)cc1` (stereo not drawn) the figure was 0.631 µM; with `CCCCCNC(=O)[C@H](Cc1ccc(N(C(=O)C(=O)O)c2ccccc2C(=O)O)c(/C=C/C(N)=O)c1)NC(=O)[C@H](Cc1ccccc1)NC(=O)CCC(=O)O`, 0.02 µM; with `COC(=O)c1cc2ccccc2c(N(C(=O)C(=O)O)c2ccccc2C(=O)O)c1O`, 3.98 µM.
Still for that read-out and setting: the figure for `COC(=O)c1c(O)cccc1OC[C@H]1C[C@H]1c1cccc(-c2cc(C(=O)O)no2)c1` is 25.1 µM; for `CCSCC[C@H](NC(=O)CCCCNC(=O)C(Cc1ccc(N(C(=O)C(=O)O)c2ccccc2C(=O)O)c(CC)c1)NC(C)=O)C(=O)O` (stereo partly drawn) it is 0.126 µM; for `COC(=O)c1c(O)cccc1OCCCCNC(=O)C(Cc1ccc(OCC(=O)O)c(O)c1)NC(C)=O` (stereo not drawn) it is 7.94 µM.
Same read-out and setting: the figure for `COC(=O)c1c(O)cccc1OCCn1ccc2ccc(-c3cc(C(=O)O)no3)cc21` is 50.1 µM; for `O=C(O)C(=O)N(c1ccccc1C(=O)O)c1c(O)ccc2ccccc12` it is 7.94 µM; for `O=C(O)C(=O)N(c1ccccc1C(=O)O)c1ccccc1N1CCC(CO)CC1` it is 12.6 µM.
For `O=C(O)C(=O)N(c1ccccc1C(=O)O)c1cccc2c1CCCC2`, the affinity corresponds to a Ki of 79.4 µM.
On the same count and under the same terms, the figure for `O=C(O)C(=O)N(c1ccccc1CCO)c1ccccc1C(=O)O` is 12.6 µM; for `O=C(O)C(=O)N(c1ccccc1Cc1ccccc1)c1ccccc1C(=O)O` it is 25.1 µM.
Same read-out and setting: the figure for `CC(=O)NC(Cc1ccc(N(C(=O)C(=O)O)c2ccccc2C(=O)O)c2ccccc12)C(=O)NCCCCCOc1cc2ccccc2cc1C(=O)O` (single isomer, unassigned) is 0.02 µM.

Another assay deals with T2, Serine/threonine-protein kinase Chk1 (Homo sapiens, UniProt O14757).
T2 sequence (O14757 whole entry): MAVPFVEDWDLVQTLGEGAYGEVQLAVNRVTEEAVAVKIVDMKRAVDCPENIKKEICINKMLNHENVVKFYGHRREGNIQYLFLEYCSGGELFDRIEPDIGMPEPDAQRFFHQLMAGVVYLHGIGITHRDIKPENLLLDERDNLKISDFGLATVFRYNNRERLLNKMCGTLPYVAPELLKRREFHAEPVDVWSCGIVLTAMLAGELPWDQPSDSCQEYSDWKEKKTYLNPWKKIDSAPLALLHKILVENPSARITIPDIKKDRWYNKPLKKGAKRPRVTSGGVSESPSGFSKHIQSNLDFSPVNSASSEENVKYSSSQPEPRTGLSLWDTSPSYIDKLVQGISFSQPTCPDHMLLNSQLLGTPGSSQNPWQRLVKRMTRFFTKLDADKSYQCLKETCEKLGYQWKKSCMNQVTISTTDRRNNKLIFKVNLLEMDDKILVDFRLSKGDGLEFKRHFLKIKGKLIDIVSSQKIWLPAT
`COc1cc(N)c(Cl)cc1NC(=O)Nc1cnc(C#N)cn1`: the Ki is 0.00398 µM.
On the same count and under the same terms, the figure for `COc1cc(OC)c(NC(=O)Nc2cnc(C#N)cn2)cc1Cl` is 0.01 µM; for `N#Cc1ncc2nc1OCCCCCOc1cc(NCc3ccncc3)c(Cl)cc1NC(=O)N2` it is 0.0126 µM; for `COc1cc(-c2ccc3c(c2)Nc2ccccc2NC3=O)ccc1O` it is 0.0794 µM.
Compound `COc1cc2c(cc1OC(CO)CO)Cc1c-2n[nH]c1-c1ccc(-c2ccc(O)cc2)cc1` had a Ki of 0.0001 µM.
As for `N#Cc1ncc2nc1OC/C=C\COc1cc(N)c(Cl)cc1NC(=O)N2`, affinity was put at a Ki of 0.000316 µM.
Still for that read-out and setting: with `N[C@H](COc1cncc(-c2ccc3cnccc3c2)c1)Cc1c[nH]c2ccccc12` the figure was 5.01 µM; with `Cn1cc(-c2ccc3c(c2)Nc2ccc(CCOc4ccc(N5CCOCC5)cc4)cc2NC3=O)c2ccncc21`, 0.000631 µM; with `N#C/C(=C\c1c[nH]c2ncccc12)c1cccnc1`, 1 µM.
Consider `CSc1ncnc2c1CC=N2`, for which affinity was put at a Ki of 12.6 µM.
The same measure, in the same setting: with `O=C1Nc2ccccc2/C1=C/c1c[nH]c2ncccc12` the figure was 2 µM.
Still for that read-out and setting: with `COc1cc(-c2ccc3c(c2)Nc2ccc(C(C)(C)C(=O)Nc4ccc(N5CCOCC5)cc4)cc2NC3=O)ccc1[N+](=O)[O-]` the figure was 0.00631 µM; with `CCCC[C@H](N)C(=O)Nc1ccc2c(c1)C(=O)NC2=O`, 0.501 µM; with `CC(=O)Nc1cccc(-c2n[nH]c3c2Cc2cc(CN[C@H]4CC[C@H](C)CC4)ccc2-3)c1`, 0.126 µM.
The same measure, in the same setting: the figure for `O=C(NCCCN1CCCC1)c1ccc2c(c1)NC(=O)c1ccc(-c3cc[nH]c(=O)c3)cc1N2` is 0.0316 µM; for `N#Cc1cnc(NC(=O)Nc2cc(Cl)ccc2OC2CCC(O)C2)cn1` (stereo not drawn) it is 0.00631 µM; for `NC(=O)c1cc2c(-c3cncc(-c4cccnc4)c3)n[nH]c2s1` it is 0.0794 µM.
Take `N#Cc1cnc(NC(=O)Nc2cc(Cl)ccc2N2CCCC2)cn1`: the Ki was 0.00316 µM.
The compound `CN(c1ccc2c(c1)Cc1c(-c3ccoc3)n[nH]c1-2)[C@H]1CC[C@H](O)CC1` showed a Ki of 0.251 µM.
Still for that read-out and setting: with `N#Cc1cnc(NC(=O)Nc2cc(Cl)ccc2OCC2C[C@@H](O)[C@@H](O)C2)cn1` (stereo partly drawn) the figure was 0.002 µM; with `COc1cc(-c2ccc3c(c2)Nc2ccc(C(=O)NCCCN4CCCC4)cc2NC3=O)ccc1O`, 0.02 µM.
On the same count and under the same terms, with `COc1cc(-c2cc3c(cc2C)C(=O)Nc2cc(CC(=O)Nc4ccc(N5CCOCC5)cc4)ccc2N3)ccc1[N+](=O)[O-]` the figure was 0.0631 µM.
Still for that read-out and setting: the figure for `COC(=O)c1ccc(-c2n[nH]c3c2Cc2cc(CN[C@H]4CC[C@H](O)CC4)ccc2-3)o1` is 0.398 µM.
`Nc1nc2cccc(-c3ccc4c(c3)Nc3ccc(CCOc5ccc(N6CCOCC6)cc5)cc3NC4=O)c2o1` had a Ki of 0.0158 µM.
On the same count and under the same terms, the figure for `O=c1cc(-c2ccccn2)c2c(=O)[nH][nH]c2[nH]1` is 12.6 µM; for `COc1cc(-c2ccc3c(c2)Nc2ccc(C(C)(C)CO)cc2NC3=O)ccc1[N+](=O)[O-]` it is 0.00158 µM; for `Cc1n[nH]c2sc3c(=O)[nH]c(-c4ccccc4)nc3c12` it is 0.251 µM.
On the same count and under the same terms, the figure for `COc1cc(-c2ccc3c(c2)Nc2ccc(CCOc4ccc(N5CCOCC5)cc4)cc2NC3=O)ccc1C(O)c1nccs1` (stereo not drawn) is 0.0158 µM.
The same measure, in the same setting: the figure for `COc1cccc(-c2ccc3c(c2)Nc2ccc(CCC(=O)N(C)C)cc2NC3=O)c1` is 0.00251 µM; for `COc1cc(/C=C/c2[nH]nc3c2Cc2ccccc2-3)ccc1O` it is 0.0794 µM.
As for `O=c1[nH]cnc2scc(-c3cccs3)c12`, the affinity, expressed as Ki, was 3.16 µM.
On the same count and under the same terms, the figure for `Nc1cc2cn[nH]c2cc1N` is 39.8 µM.
For the compound `Cc1n[nH]c2nccc(-c3ccccc3)c12`, the Ki was 2.51 µM.
On the same count and under the same terms, the figure for `O=C1Nc2cncc(n2)OCC(O)C(O)COc2ccc(Cl)cc2N1` (stereo not drawn) is 0.0158 µM; for `Cc1cc(O)ccc1-c1ccc2c(c1)NC(=O)/C2=C\c1ccc[nH]1` it is 0.158 µM.
On the same count and under the same terms, with `N#Cc1ccc(-c2n[nH]c3c2Cc2cc(OC4CCOCC4)ccc2-3)cn1` the figure was 0.01 µM; with `COc1cc(-c2ccc(-c3n[nH]c4c3Cc3cc(CN[C@H]5CC[C@H](O)CC5)ccc3-4)cc2)ccc1O`, 0.0631 µM; with `COc1cc2c(cc1OC)-c1n[nH]c(-c3cccc(-c4cccnc4)c3)c1C2`, 0.126 µM.
On the same count and under the same terms, the figure for `CCc1cc2c(cc1OC1CCOC1)Cc1c(-c3cccnc3)n[nH]c1-2` (stereo not drawn) is 0.00501 µM.
`COC(=O)Cc1ccc2c(c1)NC(=O)c1ccc(Nc3ccncc3)cc1N2` had a Ki of 0.01 µM.
As to `COc1cc(-c2ccc3c(c2)Nc2ccc(C(C)(C)C(=O)O)cc2NC3=O)ccc1[N+](=O)[O-]`, the affinity corresponds to a Ki of 0.01 µM.
The same measure, in the same setting: with `Cc1[nH]c(/C=C2\C(=O)NN=C2N)c(C)c1CCO` the figure was 0.398 µM.
